Results taken from patent publication US20240010726A1, “LFA-1 SIGNALLING MEDIATOR FOR USE IN CANCER THERAPY” (Universität Basel, priority 2020, published 2024).

Assays:
[1] = target: T1, LFA-1 (Homo sapiens, UniProt P05107+P20701); test: Co-culture assay with Blinatumomab, LFA-1 head-piece opening on PHA-blasts; type: cell-based; details: 30 min co-culture with Ramos cells; Blinatumomab 300 pg ml^−1; ±Mg^2+
T1 construct: endogenous in cells; host or cells: primary human T cells from healthy donors: PHA-induced T cell blasts, sorted EM and naive CD8 T cells, and NY-ESO-1 TCR-transduced REP T cells
Description: FIG. 3: Magnesium regulates LFA-1 mediated T cell activation and cytotoxicity as well BiTE- and CAR T-cell functionality. (a) Glycolytic switch of murine WT and LFA-1^−/− CTLs upon injection of anti-CD3/28 Ab in medium containing 1.2 mM Mg^2+ and 0 mM Mg^2+, presented as quantification of summarized data with n=4 mice. (b) Calcium flux in WT and LFA-1^−/− Jurkat T cells stimulated with anti-CD3 Ab in 1.2 mM and 0 mM Mg^2+ medium, respectively. Cells were loaded with Fluo4, and signal intensity as recorded by plate reader, was normalized to unstimulated baseline values. […] Quantified results of n=3 mice with 3 technical replicates each. […] Results are quantified of n=3 mice with 3 technical replicates each. (e) Representative CD11a (LFA-1) surface expression on human naïve and EM CD8 T cells, PHA T cell blasts and REP T cells, assessed by flow cytometry. […] Data is presented as quantified results of n=5 healthy donors (f, g, h), n=3 healthy donors with 2 technical replicates each or n=1 healthy donor with 4 technical replicates (j). […] Data is presented as quantified results of n=1 healthy donor with 4 technical replicates. […] Cytotoxicity is reported as total area under the curve of the fluorescence driven by incorporation of cytotoxic green reagent in dead target cells (green area per μm^2). […]

[2] = system: WT and LFA-1^−/− Jurkat T cells; test: Calcium flux assay in WT and LFA-1−/− Jurkat T cells; type: cell-based, human
Description: FIG. 3: Magnesium regulates LFA-1 mediated T cell activation and cytotoxicity as well BiTE- and CAR T-cell functionality. (a) Glycolytic switch of murine WT and LFA-1^−/− CTLs upon injection of anti-CD3/28 Ab in medium containing 1.2 mM Mg^2+ and 0 mM Mg^2+, presented as quantification of summarized data with n=4 mice. (b) Calcium flux in WT and LFA-1^−/− Jurkat T cells stimulated with anti-CD3 Ab in 1.2 mM and 0 mM Mg^2+ medium, respectively. Cells were loaded with Fluo4, and signal intensity as recorded by plate reader, was normalized to unstimulated baseline values. […] Quantified results of n=3 mice with 3 technical replicates each. […] The effector to target cell ratio was 3:1. Results are quantified of n=3 mice with 3 technical replicates each. (e) Representative CD11a (LFA-1) surface expression on human naïve and EM CD8 T cells, PHA T cell blasts and REP T cells, assessed by flow cytometry. […] The effector to target cell ratio was 1:1. Data is presented as quantified results of n=5 healthy donors (f, g, h), n=3 healthy donors with 2 technical replicates each or n=1 healthy donor with 4 technical replicates (j). […] The effector to target cell ratio was 1:1. Data is presented as quantified results of n=1 healthy donor with 4 technical replicates. […] (n) Representative histogram of CD11a expression on PHA-blasts, untransduced T cells as well anti-CD19 expressing CAR T cells. […] Pooled results of n=6 from 2 independent experiments are shown. (p) Abundance of IFNγ in cell culture supernatants corresponding to the conditions depicted in (o) at 24 hours was determined by ELISA (n=8, 3 independent experiments). (q) Tumor growth curves of mice placed on either Mg^2+-depleted diet or respective control diet and treated with either anti-PSMA CAR T cells, untransduced T cells or saline solution. Representative of n=2 independent experiments with n=6 mice per group. Jurkat T cells were loaded with Fluo4 (Invitrogen) at a final concentration of 2 μM in Mg^2+ free self-made medium for 30 min at 37° C. […] Fluorescence intensity over time was measure with a Tecan Spark M10 plate reader. […]

[3] = anti-CD3 Ab, 0 mM vs 1.2 mM Mg^2+

T1 sequence (P20701 26-1170): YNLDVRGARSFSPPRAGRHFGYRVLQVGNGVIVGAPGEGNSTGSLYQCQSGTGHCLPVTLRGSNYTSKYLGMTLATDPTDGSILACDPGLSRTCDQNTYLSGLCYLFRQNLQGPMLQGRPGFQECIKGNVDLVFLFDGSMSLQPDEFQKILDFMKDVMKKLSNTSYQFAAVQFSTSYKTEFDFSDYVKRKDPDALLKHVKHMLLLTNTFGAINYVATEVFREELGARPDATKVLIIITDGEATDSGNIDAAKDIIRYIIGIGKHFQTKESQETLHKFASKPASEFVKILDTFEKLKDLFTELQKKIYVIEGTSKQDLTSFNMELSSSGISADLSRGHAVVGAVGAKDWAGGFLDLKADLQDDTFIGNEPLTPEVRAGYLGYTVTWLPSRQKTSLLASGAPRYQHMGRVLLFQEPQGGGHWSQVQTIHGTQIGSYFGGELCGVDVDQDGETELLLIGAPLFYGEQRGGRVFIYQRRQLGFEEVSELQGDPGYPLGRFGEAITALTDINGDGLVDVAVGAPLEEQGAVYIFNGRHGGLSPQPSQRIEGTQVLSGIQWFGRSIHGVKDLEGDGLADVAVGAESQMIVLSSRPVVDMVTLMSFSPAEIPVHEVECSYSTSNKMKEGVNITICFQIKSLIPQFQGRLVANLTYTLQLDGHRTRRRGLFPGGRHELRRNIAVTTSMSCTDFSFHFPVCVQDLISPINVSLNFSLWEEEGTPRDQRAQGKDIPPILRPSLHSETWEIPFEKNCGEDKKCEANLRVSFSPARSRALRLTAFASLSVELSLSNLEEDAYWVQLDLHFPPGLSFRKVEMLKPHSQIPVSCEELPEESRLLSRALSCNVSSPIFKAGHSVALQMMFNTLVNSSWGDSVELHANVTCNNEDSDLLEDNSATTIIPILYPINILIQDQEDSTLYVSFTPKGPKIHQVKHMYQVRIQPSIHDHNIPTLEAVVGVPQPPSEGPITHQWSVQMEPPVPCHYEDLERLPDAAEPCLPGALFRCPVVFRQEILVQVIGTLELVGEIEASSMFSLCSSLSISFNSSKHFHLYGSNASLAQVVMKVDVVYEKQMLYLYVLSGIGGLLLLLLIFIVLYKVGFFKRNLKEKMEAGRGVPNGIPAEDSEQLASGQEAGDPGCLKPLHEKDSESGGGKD
T1 sequence (P05107 23-769): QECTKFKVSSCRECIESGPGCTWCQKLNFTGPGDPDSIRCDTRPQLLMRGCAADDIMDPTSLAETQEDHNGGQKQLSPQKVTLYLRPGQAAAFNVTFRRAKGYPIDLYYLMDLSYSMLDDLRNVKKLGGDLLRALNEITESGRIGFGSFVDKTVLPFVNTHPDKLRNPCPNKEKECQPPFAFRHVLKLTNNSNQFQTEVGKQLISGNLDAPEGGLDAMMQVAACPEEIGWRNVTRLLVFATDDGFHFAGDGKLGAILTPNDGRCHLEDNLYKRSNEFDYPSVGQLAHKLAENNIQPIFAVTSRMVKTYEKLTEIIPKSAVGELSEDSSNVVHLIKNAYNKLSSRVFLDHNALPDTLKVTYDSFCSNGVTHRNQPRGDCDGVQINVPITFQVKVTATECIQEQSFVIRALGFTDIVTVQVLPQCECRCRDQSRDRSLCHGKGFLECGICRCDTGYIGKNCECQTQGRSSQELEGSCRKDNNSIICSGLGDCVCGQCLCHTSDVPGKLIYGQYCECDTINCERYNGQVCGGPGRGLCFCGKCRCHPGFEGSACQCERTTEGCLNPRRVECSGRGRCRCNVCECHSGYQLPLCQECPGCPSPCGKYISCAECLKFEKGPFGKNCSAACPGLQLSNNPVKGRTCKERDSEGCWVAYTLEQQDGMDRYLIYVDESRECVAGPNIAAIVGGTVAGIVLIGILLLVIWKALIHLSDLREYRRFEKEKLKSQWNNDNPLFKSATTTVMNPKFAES

[Mg+2] [Mg^2+, Magnesium]
Activation-induced LFA-1 head-piece opening on PHA-blasts [1]: Mg^2+-dependent | Ca^2+ influx in LFA-1^−/− Jurkat T cells [2, 3]: independent from extracellular Mg^2+ concentrations | Ca^2+ influx in WT Jurkat T cells [2, 3]: decreased Ca^2+ influx | Prolonged, sustained Ca^2+ influx ([2]; extracellular Mg^2+ depletion): absence of prolonged, sustained Ca^2+ influx
